The values below come from US10253071B2, “Selectin inhibitors, composition, and uses related thereto” (Beth Israel Deaconess Medical Center, Inc., priority 2014, dated 2019).

In this test the target is T1, L-selectin (L-sel-Ig) (Homo sapiens, UniProt P14151).
T1 sequence (P14151 39-372): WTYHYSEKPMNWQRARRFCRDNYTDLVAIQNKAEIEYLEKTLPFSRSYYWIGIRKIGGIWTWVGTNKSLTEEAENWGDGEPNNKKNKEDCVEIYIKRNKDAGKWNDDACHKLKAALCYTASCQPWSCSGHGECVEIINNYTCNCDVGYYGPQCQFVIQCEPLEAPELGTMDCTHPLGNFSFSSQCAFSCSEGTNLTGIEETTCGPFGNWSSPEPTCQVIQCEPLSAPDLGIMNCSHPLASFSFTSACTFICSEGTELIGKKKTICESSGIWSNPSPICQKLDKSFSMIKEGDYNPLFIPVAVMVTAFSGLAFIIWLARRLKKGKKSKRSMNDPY
Description: Biacore binding assay, L-selectin. To be noted: compared with P-selectin. The protocol:
Dissociation constants (Kd) were determined using a Biacore binding assay after initial capture of biotinylated GS(n)P-6 onto streptavidin-coated sensor chips followed by flow through of P-, L- or E-sel-Ig (2.5 to 60 μg/mL). […] The Kd of GSnP-6 to murine P-selectin was ˜9-fold lower than to human P-selectin.
A general note: In SPR one partner is held on a chip, and binding of the other changes the refractive index at the surface.

Square brackets hold non-standard residues; d marks the D form. Peptide text beside a SMILES is read from it. * marks the point of attachment. X1 = CC(=O)N[C@@H]1[C@@H](O[C@@H]2O[C@H](CO)[C@H](O)[C@H](O)[C@H]2O)[C@@H](O)[C@@H](CO[C@@H]2O[C@H](CO)[C@@H](O[C@@H]3O[C@H](CO)[C@H](O)[C@H](O[C@]4(C(=O)O)C[C@H](O)[C@@H](NC(C)=O)[C@H]([C@H](O)[C@H](O)CO)O4)[C@H]3O)[C@H](O[C@@H]3O[C@@H](C)[C@@H](O)[C@@H](O)[C@@H]3O)[C@H]2NC(C)=O)O[C@@H]1*; Phe(4-CH2SO3H) = N[C@@H](Cc1ccc(CS(=O)(=O)O)cc1)C(=O)O; Mca = COc1ccc2c(CC(=O)*)cc(=O)oc2c1

On to `COc1ccc2c(CC(=O)NCCCC[C@H](N)C(=O)N[C@@H](CCC(=O)O)C(=O)N[C@@H](Cc3ccc(CS(=O)(=O)O)cc3)C(=O)N[C@@H](CCC(=O)O)C(=O)N[C@@H](Cc3ccc(CS(=O)(=O)O)cc3)C(=O)N[C@@H](CC(C)C)C(=O)N[C@@H](CC(=O)O)C(=O)N[C@@H](Cc3ccc(CS(=O)(=O)O)cc3)C(=O)N[C@@H](CC(=O)O)C(=O)N[C@@H](Cc3ccccc3)C(=O)N[C@@H](CC(C)C)C(=O)N3CCC[C@H]3C(=O)N[C@@H](CCC(=O)O)C(=O)N[C@H](C(=O)N[C@@H](CCC(=O)O)C(=O)N3CCC[C@H]3C(=O)N[C@@H](CC(C)C)C(=O)O)[C@@H](C)O[C@H]3O[C@H](CO[C@@H]4O[C@H](CO)[C@@H](O[C@@H]5O[C@H](CO)[C@H](O)[C@H](O[C@]6(C(=O)O)C[C@H](O)[C@@H](NC(C)=O)[C@H]([C@H](O)[C@H](O)CO)O6)[C@H]5O)[C@H](O[C@@H]5O[C@@H](C)[C@@H](O)[C@@H](O)[C@@H]5O)[C@H]4NC(C)=O)[C@H](O)[C@H](O[C@@H]4O[C@H](CO)[C@H](O)[C@H](O)[C@H]4O)[C@H]3NC(C)=O)cc(=O)oc2c1` [GSnP-6] (H-K(Mca)E[Phe(4-CH2SO3H)]E[Phe(4-CH2SO3H)]LD[Phe(4-CH2SO3H)]DFLPET(X1)EPL-OH), for which the “apparent affinity to L-selectin” value is reported as “even lower apparent affinity”.
